Measured values taken from ChEMBL document CHEMBL5532698, “2,3-Dihydroquinazolin-4(1H)-ones and quinazolin-4(3H)-ones as broad-spectrum cytotoxic agents and their impact on tubulin polymerisation” (RSC Med Chem, 2024).

Columns and labels:
[1] = Antiproliferative activity against human SJG2 cells assessed as cell growth inhibition at 25 uM incubated for 72 hrs by MTT assay relative to control; assay type: functional; conditions: SJ-G2
[2] = test system: NCI-H460; assay: Antiproliferative activity against human NCI-H460 cells assessed as cell growth inhibition incubated for 72 hrs by MTT assay; assay type: functional
[3] = test system: HT-29; assay: Antiproliferative activity against human HT-29 cells assessed as cell growth inhibition incubated for 72 hrs by MTT assay; assay type: functional
[4] = test system: A2780; assay: Antiproliferative activity against human A2780 cells assessed as cell growth inhibition incubated for 72 hrs by MTT assay; assay type: functional
[5] = Cytotoxicity against human MCF-10A cells assessed as cell growth inhibition at 25 uM incubated for 72 hrs by MTT assay relative to control; assay type: toxicity, cell-based
[6] = test system: DU-145; assay: Antiproliferative activity against human DU-145 cells assessed as cell growth inhibition incubated for 72 hrs by MTT assay; assay type: functional
[7] = Cytotoxicity against human MCF-10A cells assessed as cell growth inhibition incubated for 72 hrs by MTT assay; assay type: toxicity, cell-based
[8] = test system: HT-29; assay: Antiproliferative activity against human HT-29 cells assessed as cell growth inhibition at 25 uM incubated for 72 hrs by MTT assay relative to control; assay type: functional
[9] = test system: A2780; assay: Antiproliferative activity against human A2780 cells assessed as cell growth inhibition at 25 uM incubated for 72 hrs by MTT assay relative to control; assay type: functional
[10] = test system: BE(2)-C; assay: Antiproliferative activity against human BE2C cells assessed as cell growth inhibition at 25 uM incubated for 72 hrs by MTT assay relative to control; assay type: functional
[11] = test system: U-87 MG; assay: Antiproliferative activity against human U87 cells assessed as cell growth inhibition incubated for 72 hrs by MTT assay; assay type: functional, U-87MG ATCC
[12] = test system: MCF7; assay: Antiproliferative activity against human MCF7 cells assessed as cell growth inhibition incubated for 72 hrs by MTT assay; assay type: functional
[13] = test system: A-431; assay: Antiproliferative activity against human A-431 cells assessed as cell growth inhibition at 25 uM incubated for 72 hrs by MTT assay relative to control; assay type: functional
[14] = test system: MIA PaCa-2; assay: Antiproliferative activity against human MIA PaCa-2 cells assessed as cell growth inhibition incubated for 72 hrs by MTT assay; assay type: functional
[15] = test system: DU-145; assay: Antiproliferative activity against human DU-145 cells assessed as cell growth inhibition at 25 uM incubated for 72 hrs by MTT assay relative to control; assay type: functional
[16] = test system: BE(2)-C; assay: Antiproliferative activity against human BE2C cells assessed as cell growth inhibition incubated for 72 hrs by MTT assay; assay type: functional
[17] = Antiproliferative activity against human SJG2 cells assessed as cell growth inhibition incubated for 72 hrs by MTT assay; assay type: functional; conditions: SJ-G2
[18] = test system: MCF7; assay: Antiproliferative activity against human MCF7 cells assessed as cell growth inhibition at 25 uM incubated for 72 hrs by MTT assay relative to control; assay type: functional
[19] = test system: U-87 MG; assay: Antiproliferative activity against human U87 cells assessed as cell growth inhibition at 25 uM incubated for 72 hrs by MTT assay relative to control; assay type: functional, U-87MG ATCC
[20] = test system: MIA PaCa-2; assay: Antiproliferative activity against human MIA PaCa-2 cells assessed as cell growth inhibition at 25 uM incubated for 72 hrs by MTT assay relative to control; assay type: functional
[21] = test system: A-431; assay: Antiproliferative activity against human A-431 cells assessed as cell growth inhibition incubated for 72 hrs by MTT assay; assay type: functional
[22] = test system: NCI-H460; assay: Antiproliferative activity against human NCI-H460 cells assessed as cell growth inhibition at 25 uM incubated for 72 hrs by MTT assay relative to control; assay type: functional

Structure (SMILES)	GI50 [2] [µM]	GI50 [3] [µM]	GI50 [4] [µM]	GI50 [6] [µM]	GI50 [11] [µM]	GI50 [12] [µM]	GI50 [14] [µM]	inhibition at 25 µM [1] [%]	inhibition at 72 h, 25 µM [5] [%]	GI50 at 72 h [7] [µM]	inhibition at 25 µM [8] [%]	inhibition at 25 µM [9] [%]	inhibition at 25 µM [10] [%]	inhibition at 25 µM [13] [%]	inhibition at 25 µM [15] [%]	GI50 [16] [µM]	GI50 [17] [µM]	inhibition at 25 µM [18] [%]	inhibition at 25 µM [19] [%]	inhibition at 25 µM [20] [%]	other results
COc1cccc(C2NC(=O)c3ccccc3N2)c1 (configuration not stated)	3.3	1.7	2.6	2.3	2.7	5.8	4.1	> 100	> 100	3.2	> 100	100	> 100	> 100	> 100	2.3	3.3	85	99	94	GI50 [21]: 2.1 µM; inhibition at 25 µM [22]: 100%
CCCCCCCCC1NC(=O)c2ccccc2N1 (configuration not stated)	14	13	4.2	> 50	> 50	2.9	12	77	80	11	93	96	85	91	53	9.2	13	> 100	39	75	GI50 [21]: 7.1 µM; inhibition at 25 µM [22]: 61%
O=C1NC(c2ccc([N+](=O)[O-])cc2)Nc2ccccc21 (configuration not stated)	14	8.7	11	26	> 50	3.8	7.5	56	58	11	70	65	53	57	50	10	10	> 100	22	52	GI50 [21]: 17 µM; inhibition at 25 µM [22]: 61%

Further lines, with some results ahead:

GI50 [2] [µM]	GI50 [3] [µM]	GI50 [4] [µM]	GI50 [6] [µM]	GI50 [11] [µM]	GI50 [12] [µM]	GI50 [14] [µM]	Structure (SMILES)	inhibition at 25 µM [1] [%]	inhibition at 72 h, 25 µM [5] [%]	GI50 at 72 h [7] [µM]	inhibition at 25 µM [8] [%]	inhibition at 25 µM [9] [%]	inhibition at 25 µM [10] [%]	inhibition at 25 µM [13] [%]	inhibition at 25 µM [15] [%]	GI50 [16] [µM]	GI50 [17] [µM]	inhibition at 25 µM [18] [%]	inhibition at 25 µM [19] [%]	inhibition at 25 µM [20] [%]	other results
2.6	5.9	3.1	1.9	8.9	1.3	2.9	O=c1[nH]c(/C=C/c2cccc(O)c2)nc2ccccc12	> 100	97	3.1	> 100	> 100	> 100	> 100	> 100	1.8	2.5	> 100	73	> 100	GI50 [21]: 3 µM; inhibition at 25 µM [22]: > 100%
5.7	5.2	3.9	4.5	10	3.8	8.8	O=c1[nH]c(-c2ccc(Br)cc2)nc2ccccc12	66	91	5.4	91	83	77	88	98	6.4	4.3	99	91	71	GI50 [21]: 5.8 µM; inhibition at 25 µM [22]: 68%
11	3.2	3.6	8.9	13	3.1	14	O=c1[nH]c(/C=C/c2ccc(Br)cc2)nc2ccccc12	76	86	4.6	94	93	78	78	77	6.4	15	> 100	83	68	GI50 [21]: 11 µM; inhibition at 25 µM [22]: 70%
